Assay [1] relates to IP3 -C6 -NC5 -BSA induced antibodies (anti-Ins(1,4,5)P3 antiserum). Put plainly: Competitive ELISA: immobilized Ins(1,4,5)P3 vs competitor, IP3-C6NC5-BSA induced antiserum. Type of assay: binding, New Zealand White rabbit. The note with it: IP3-C6-NC5-BSA induced antibodies; competitive ELISA; read-out: [Competitor] (M) at half maximal absorbance (B/Bo = 0.5) or IC50. As for the experimental part:
(§1) New Zealand White female rabbits were immunized with 1 mg of the IP3 -BSA conjugate in 0.5 ml of saline emulsified with an equal volume of Freund's complete adjuvant by five to six subcutaneous injections at the back and both flanks. Booster injections were given with the same amounts of the IP3 -BSA prepared with incomplete Freund's adjuvant at monthly intervals. After the second boost, the animals were bled from the ear vein 2 weeks after each booster injection. The antisera thus prepared were stored at -20° C. until used.
(§2) The presence of anti-Ins(1,4,5)P3 antibodies in rabbit serum was detected by an ELISA. Ins(1,4,5)P3 (hapten) was covalently attached to microtiter plates through a C-6 linker by adding 6-O-(ω-Aminohexyl)-D-myo-inositol 1,4,5-triphosphate (1) (1.25 μg in 0.1 ml of phosphate buffered saline (PBS) per well) to maleic anhydride-activated polystyrene plates (Pierce). This anhydride-activated plate allows direct coupling of amine-bearing molecules to the well surface, (Pierce Chemical Co. Instruction 15110X (1992) REACTI-BIND™ Maleic Anhydride Activated Polystyrene Plates), and obviates the need for a carrier protein to immobilize haptens. The plate was incubated at room temperature overnight, and each well was blocked by adding 0.12 ml of SUPERBLOCK ™ blocking solution in PBS (Pierce). After 10 minutes at room temperature, the plate was washed twice with 0.05% Tween-20 in 10 mM Tris/HCl containing 0.85% NaCl, pH 7.2 (TBS), followed by TBS buffer twice. Rabbit antiserum (antibodies) diluted in TBS buffer containing 0.1% gelatin was added (95 μl per well). The plate was incubated at 37° C. for 2 hours, and washed as stated above. Specific antibody binding was assessed by adding goat anti-rabbit IgG-HRP conjugate (1/200 dilution in TBS containing 0.1% gelatin; 90 μl per well), and the plate was incubated for another 2 hours at 37° C. After the plate was washed again, the peroxidase substrate solution (90 μl per well) containing 2 mM 2,2'-azinobis(3-ethyl-benzthiazoline-6-sulfonic acid), 2.5 mM hydrogen peroxide, and 50 mM citrate buffer, with a final pH of 5.0, was added. The reaction was incubated at room temperature for 15-20 minutes, and terminated by adding 20 μl of 5% SDS to each well. The absorbance at 415 nm was measured by a microtiter plate reader. Rabbit serum taken before immunization was used as a control in all the assays, from which the absorbance values obtained served as a blank for the correction of experimental data.
(§3) The avidity and specificity of these antisera were examined by competitive ELISA experiments between immobilized Ins(1,4,5)P3 and various inositol phosphates.
(§4) Table 1 Avidity of antisera toward various inositol phosphates and
(§5) PIP2. The avidity is expressed as the concentrations at halfmaximal
(§6) absorbance (B/Bo = 0.5) in the competitive ELISA experiments.
In general terms: An ELISA detects its analyte on a solid surface through an enzyme-linked reagent.

In assay [2] the test system is IP3 -C5 -BSA induced antibodies (anti-Ins(1,4,5)P3 antiserum). Put plainly: Competitive ELISA: immobilized Ins(1,4,5)P3 vs competitor, IP3-C5-BSA induced antiserum. The format is binding, New Zealand White rabbit. The note with it: IP3-C5-BSA induced antibodies. As for the experimental part: as §1, §2, §3, §4, §5, §6
The test system of assay [3] is affinity-purified Ins(1,4,5)P3-specific antibodies (from IP3 -C5 -BSA induced antiserum). The assay is described as follows: Competitive ELISA with affinity-purified Ins(1,4,5)P3-specific antibodies and inositol phosphates. The format is binding, New Zealand White rabbit. As for the experimental part:
as §2
The antiserum (5.2 ml) was applied to an ECONO-PAC ™ protein A cartridge (5 ml, Bio-Rad) equilibrated with 100 mM Tris/HCl, pH 8.0. The column was washed with, in sequence, 20 ml of the equilibrating buffer, and 25 ml of 10 mM Tris/HCl, pH 8.0. The bound IgG was eluted with 25 ml of 100 mM glycine buffer, pH 3.0, at a flow rate of 0.5 ml/min. Fractions of 1.7 ml were collected in tubes containing 100 μl of 1M Tris/HCl, pH 8.0.
The dialyzed solution from step 1 was applied to a Ins(1,4,5)IP3 -agarose column (5.8 ml bed volume) equilibrated with 10 mM Tris/HCl, pH 7.5. The column was washed with the equilibration buffer followed by 500 mM NaCl in the same buffer. The absorbed proteins were eluted with, in sequence, 50 ml of 100 mM glycine buffer, pH 3.5, 10 ml of 10 mM Tris/HCl, pH 8.8, and 50 ml of 100 mM NaHCO3 /Na2 CO3 buffer, pH 10.5 Fractions of 1.7 ml were collected. For the eluate with the glycine buffer and with the NaHCO3 /Na2 /CO3 buffer, fractions were collected in tubes containing 100 μl of 1M Tris/HCl, pH 8.0, and 700 μl of 1M Tris/HCl, pH 7.6, respectively.
Referring to FIG. 2, the displacement curves were generated from competitive ELISA experiments between immobilized (1,4,5)IP3 and various inositol phosphates shown in the insert. The antibodies were preincubated with individual competitors at various concentrations for 30 minutes at room temperature before added to the (1,4,5)IP3 immobilized EIA plates. The assay for the competitive binding was the same as that described for the ELISA under "Experimental Procedures". Percentage total specific binding is expressed by B/Bo, where B=absorbance with competitor and Bo =absorbance without competitor. Each data point represents the means of three determinations. For clarity, the standard deviations were not shown.

The target in a further assay is Ins(1,4,5)P3 receptors. The note with it: Wilcox et al. 1993; read-out: IC50 for displacing [3H]Ins(1,4,5)P3 binding from Ins(1,4,5)P3 receptors; cited from earlier work.

SMILES strings stand for the structures.

`O=P(O)(O)O[C@@H]1[C@H](O)[C@H](O)[C@@H](OP(=O)(O)O)[C@H](OP(=O)(O)O)[C@H]1O` [Ins(1,4,5)P3, D-myo-inositol 1,4,5-trisphosphate]: the IC50 was 8.9e-08 M in assay [1]; 3.1e-08 M in assay [2] (competitive ELISA, read-out: [Competitor] (M) at half maximal absorbance (B/Bo = 0.5) or IC50); 12 nM in assay [3]; 20.7 nM on Ins(1,4,5)P3 receptors. Moreover, the “binding compared with IP3-C6NC5-BSA induced antiserum” value in assay [2] is given as “stronger binding”.

The values are drawn from US5798447A, “Antibodies specific for D-myo-inositol 1, 4, 5-trisphosphate and the enzyme-linked immunosorbent assay of D-myo-inositol 1, 4, 5-trisphosphate” (The Board of Governors for Higher Education State of Rhode …, priority 1996, dated 1998).
